Results from patent US7960373B2, “2-alkoxy-3,4,5-trihydroxyalkylamide-benzothiazepines preparation thereof, compositions containing them and use thereof” (Sanofi-Aventis, priority 2006, dated 2011).

Assays:
HCT116 cells = assay: inhibition of cell proliferation of HCT116 cells (14C-thymidine incorporation); assay type: cell-based; settings: Homo sapiens, HCT-116, HCT116, 96 hours
Method: The antiproliferative activity of the products of the examples of Table 1 was determined by measuring the inhibition of cell proliferation of HCT116 cells. The cells are inoculated in a cell culture medium at a concentration of 10 000 cells per well, in 0.17 mL of medium, and 20 μL of test product, at various concentrations, and 10 μL of thymidine [methyl-14C] (100 μCi/ml—specific activity 47.90 mCi/mmol; NEN Technologies reference NEC568 batch 3550-001) are added, and the cells are then incubated at 37° C. and 5% CO2.
Medium used for the HCT116 cell culturing: DMEM medium 2 mM L-glutamine, 200 IU/ml penicillin, 200 μg/mL streptomycin and 10% (V/V) foetal calf serum (Life Technologies).
After 96 hours, the incorporation of ^14C-thymidine is counted in a 1450 Microbeta Wallac Trilux liquid scintillation counter. The results R are expressed in cpm (counts per minute) and converted to a percentage of growth inhibition GI % by first subtracting the average number of cpm for the wells without B cells and then dividing the number of cpm for the wells of the untreated cells C comprising 20 μL of product dilution medium containing 1% ethanol. (GI %=(R−B)×100/C %).
The IC50 values are calculated by means of equation 205 of the XLFit software (IDBS company, UK) via non-linear regression analysis using the Marquardt algorithm (Donald W. Marquardt, J. Soc. Industry. Appl., vol. 11, No. 2, June, 1963).

[1] = Caco2-TC7 permeability (Papp single point); assay type: in vitro ADME; settings: human, Caco-2
[2] = total metabolic stability (% metabolization); assay type: in vitro ADME; settings: in mice
Excerpt: This compound has better total metabolic stability (11% metabolization in mice) than the product of Example 20 (99%) described in patent application WO 2006/056 696.

Row | SMILES | IC50 (HCT116 cells) [nM] | Papp [1] [×10⁻⁶ cm/s] | total metabolic stability, % metabolization [2] [%]
1 | CO[C@@H](C(=O)N[C@H]1C[S@@+]([O-])c2ccccc2N(Cc2cc(F)cc(F)c2)C1=O)[C@H](O)[C@@H](O)[C@H](O)/C=C/C(C)(C)C [Example 1] | 9 |  | 
2 | CO[C@@H](C(=O)N[C@H]1C[S@+]([O-])c2ccccc2N(Cc2cc(F)cc(F)c2)C1=O)[C@H](O)[C@@H](O)[C@H](O)/C=C/C(C)(C)C [Example 2] | 20 |  | 
3 | CO[C@@H](C(=O)N[C@H]1CSc2ccccc2N(Cc2ccccc2)C1=O)[C@H](O)[C@@H](O)[C@H](O)/C=C/C(C)(C)C [Example 3, N-[(3R)-5-benzyl-4-oxo-2,3,4,5-tetrahydro-1,5-benzothiazepin-3-yl]-(6E)-(2R,3R,4S,5R)-3,4,5-trihydroxy-2-methoxy-8,8-dimethyl non-6-enamide] | 10 |  | 
4 | CO[C@@H](C(=O)N[C@H]1CSc2ccccc2N(C)C1=O)[C@H](O)[C@@H](O)[C@H](O)/C=C/C(C)(C)C [Example 4, N-[(3R)-5-methyl-4-oxo-2,3,4,5-tetrahydro-1,5-benzothiazepin-3-yl]-(6E)-(2R,3R,4S,5R)-3,4,5-trihydroxy-2-methoxy-8,8-dimethylnon-6-enamide] | 19 |  | 
5 | CO[C@@H](C(=O)N[C@H]1CSc2c(Cl)cc(C(F)(F)F)cc2NC1=O)[C@H](O)[C@@H](O)[C@H](O)/C=C/C(C)(C)C [Example 5, N-((3R)-9-chloro-4-oxo-7-trifluoromethyl-2,3,4,5-tetrahydro-1,5-benzothiazepin-3-yl)-(6E)-(2R,3R,4S,5R)-3,4,5-trihydroxy-2-methoxy-8,8-dimethylnon-6-enamide] | 14 | 2.3 | 11
6 | CO[C@@H](C(=O)N[C@H]1CSc2ccccc2N(C)C1=O)[C@H](O)[C@@H](O)[C@H](O)/C=C/C1CCCC1 [Example 9, (2R,3R,4S,5R,6E)-7-cyclopentyl-3,4,5-trihydroxy-2-methoxy-N-[(3R)-5-methyl-4-oxo-2,3,4,5-tetrahydro-1,5-benzothiazepin-3-yl]hept-6-enamide] | 7 |  | 
